Measured values taken from US20110306597A1, “Nicotinamide Derivatives” (priority 2008, published 2011).

Biological target: human recombinant H-PGDS (Homo sapiens, UniProt O60760)
Assay: Fluorescence Intensity h-PGDS TBA Enzyme Assay
Type: biochemical
Conditions: 1:175,000 human recombinant H-PGDS, highest inhibitor concentration typically 1 μM
Method: Fluorescence Intensity h-PGDSTBA Enzyme Assay
Prostaglandin D Synthase (PGDS) converts the substrate prostaglandin H2 (PGH2) to prostaglandin D2. The depletion of PGH2 was measured via an Fe(II) reduction of the remaining PGH2 to malondialdehyde (MDA) and 12-HHT. The enzyme assay is based on the quantitative formation of a fluorescent complex from the non-fluorescent compounds MDA and 2-thiobarbituric acid (TBA), substantially as described in U.S. patent application publication US-2004/152148 by Lombardt.
The enzyme assay (31 μls) contained 100 mM Tris base pH 8.0, 100 μM MgCl2, 0.1 mg/ml IgG Rabbit serum, 5.0 μM PGH2 (Cayman; ethanol solution, #17020), 2.5 mM L-Glutathione (Sigma; reduced form #G4251), 1:175,000 human recombinant H-PGDS (from 1 mg/ml), 0.5% DMSO and inhibitor (varying concentration). Three μls of diluted inhibitor (dissolved in DMSO) was plated into a 384-well assay plate followed by a 25 μl addition of an enzyme solution containing h-PGDS, Tris, MgCl2, IgG and L-Glutathione. After preincubation of inhibitor and enzyme solution for 10 minutes at room temperature, the reaction was initiated with a 3 μl addition of substrate solution in 10 mM HCl. The reaction was terminated after 42 second by the addition (3 μl) of stop buffer containing FeCl2 and citric acid. After addition of 45.5 μls of TBA plates were heated for one hour in a 70 C oven. Plates were cooled at room temperature overnight and read on a plate reader the next day with excitation @ 530 nm and emission @ 565 nm.
IC50's of inhibitors were calculated with a 4-parameter fit using 11 inhibitor concentrations in duplicate with 3-fold serial dilutions. Controls on each plate included no inhibitor (zero % effect) and an inhibitor 10-fold in excess of its' IC50 (100% effect). The highest inhibitor concentration tested was typically 1 μM.

Sequence of human recombinant H-PGDS (O60760 whole entry): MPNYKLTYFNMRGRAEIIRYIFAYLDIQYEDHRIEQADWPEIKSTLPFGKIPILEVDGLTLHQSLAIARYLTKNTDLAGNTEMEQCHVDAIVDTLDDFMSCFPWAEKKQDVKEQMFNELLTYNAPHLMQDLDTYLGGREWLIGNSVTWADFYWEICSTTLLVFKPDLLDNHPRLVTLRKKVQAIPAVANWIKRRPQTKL

Row | Compound | IC50
1 | Cc1nccn1CCNC(=O)c1ccc(-c2cccc(F)c2)nc1 [Example 119, 6-(3-Fluorophenyl)-N-[2-(2-methyl-1H-imidazol-1-yl)ethyl]nicotinamide] | 59.8 nM
2 | O=C(NCc1ccc(Br)cc1)c1ccc(-c2ccccc2)nc1 [Example 513, N-(4-Bromobenzyl)-6-phenylnicotinamide] | 8.9 nM
3 | N#CC(NC(=O)c1ccc(-c2cccc(F)c2)nc1)C(=O)NCCN1CCOCC1 (stereo not drawn) [Example 212, N-{1-Cyano-2-[(2-morpholin-4-ylethyl)amino]-2-oxoethyl}-6-(3-fluorophenyl)nicotinamide] | 297 nM
4 | O=C(NCc1ccc(Cl)c(Cl)c1)c1ccc(-c2cccc(F)c2)nc1 [Example 154, N-(3,4-Dichlorobenzyl)-6-(3-fluorophenyl)nicotinamide] | 43.7 nM
5 | Cc1ccc(CN2CCC(NC(=O)c3ccc(-c4ccc(F)cc4)nc3)C2=O)cc1 (stereo not drawn) [Example 259, 6-(4-Fluorophenyl)-N-[1-(4-methylbenzyl)-2-oxopyrrolidin-3-yl]nicotinamide] | 280 nM
6 | COc1cccc(-c2ccc(C(=O)NC3CCN(Cc4ccc(Cl)c(Cl)c4)C3=O)cn2)c1 (stereo not drawn) [Example 296, N-[1-(3,4-Dichlorobenzyl)-2-oxopyrrolidin-3-yl]-6-(3-methoxyphenyl)nicotinamide] | 209 nM
7 | Cc1cc(-c2cnc(C(C)(C)C)nc2CNC(=O)c2ccc(-c3cccc(F)c3)nc2)on1 [Example 122, N-{[2-tert-Butyl-5-(3-methylisoxazol-5-yl)pyrimidin-4-yl]methyl}-6-(3-fluorophenyl)nicotinamide] | > 1000 nM
8 | COc1cccc(-c2ccc(C(=O)NCc3ccccc3)cn2)c1 [Example 341, N-Benzyl-6-(3-methoxyphenyl)nicotinamide] | 131 nM
9 | Cc1nc(CCNC(=O)c2ccc(-c3cccc(F)c3)nc2)cs1 [Example 2, 6-(3-Fluorophenyl)-N-[2-(2-methyl-1,3-thiazol-4-yl)ethyl]nicotinamide] | 3.53 nM
10 | 6-(3-Fluorophenyl)-N-{[4-(4- methoxybenzoyl)-5- oxomorpholin-2- yl]methyl}nicotinamide [Example 72] | 51 nM
11 | O=C(NC1C(=O)NCCc2ccccc21)c1ccc(-c2cccc(F)c2)nc1 (stereo not drawn) [Example 120, 6-(3-Fluorophenyl)-N-(2-oxo-2,3,4,5-tetrahydro-1H-3-benzazepin-1-yl)nicotinamide] | 67.3 nM
12 | COc1cccc(-c2ccc(C(=O)NCCC3CCCCO3)cn2)c1 (stereo not drawn) [Example 304, 6-(3-Methoxyphenyl)-N-[2-(tetrahydro-2H-pyran-2-yl)ethyl]nicotinamide] | 177 nM
13 | CC(NC(=O)c1ccc(-c2cccc(F)c2)nc1)C1CC1 (stereo not drawn) [Example 128, N-(1-Cyclopropylethyl)-6-(3-fluorophenyl)nicotinamide] | 28.3 nM
14 | O=C(NCC1CCCN(c2ncccn2)C1)c1ccc(-c2cccc(F)c2)nc1 (stereo not drawn) [Example 101, 6-(3-Fluorophenyl)-N-[(1-pyrimidin-2-ylpiperidin-3-yl)methyl]nicotinamide] | 17.4 nM
15 | O=C(NCC1(O)CCCCC1)c1ccc(-c2cccc(F)c2)nc1 [Example 26, 6-(3-Fluorophenyl)-N-[(1-hydroxycyclohexyl)methyl] nicotinamide] | 41.8 nM
16 | O=C(NCCCCO)c1ccc(-c2cccc(F)c2)nc1 [Example 149, 6-(3-Fluorophenyl)-N-(4-hydroxybutyl)nicotinamide] | 20.1 nM
17 | O=C(NCc1cn2ccccc2n1)c1ccc(-c2cccc(F)c2)nc1 [Example 100, 6-(3-Fluorophenyl)-N-(imidazo[1,2-a]pyridin-2-ylmethyl)nicotinamide] | 12.8 nM
18 | O=C(NCCN1CCOC1=O)c1ccc(-c2ccccc2)nc1 [Example 359, N-[2-(2-Oxo-1,3-oxazolidin-3-yl)ethyl]-6-phenylnicotinamide] | 37.1 nM
19 | COC(=O)[C@H](Cc1ccc(Cl)cc1)NC(=O)c1ccc(-c2cccc(F)c2)nc1 [Example 403, Methyl 4-chloro-N-{[6-(3-fluorophenyl)pyridin-3-yl]carbonyl}phenylalaninate] | 238 nM
20 | COc1cccc(-c2ccc(C(=O)NCc3ccc(C)cc3)cn2)c1 [Example 484, 6-(3-Methoxyphenyl)-N-(4-methylbenzyl)nicotinamide] | 178 nM
21 | CC(C)[C@H](N)C(=O)NC(=O)c1ccc(-c2ccccc2)nc1 [Example 512, 6-Phenyl-N-L-valylnicotinamide] | 359 nM

Row | Compound | IC50
22 | O=C(NCCN1CCCC1)c1ccc(-c2ccc(F)cc2)nc1 [Example 469, 6-(4-Fluorophenyl)-N-(2-pyrrolidin-1-ylethyl)nicotinamide] | ≥ 1000 nM
23 | O=C(NCC1COc2ccccc2C1)c1cnc(-c2cccc(F)c2)c(Cl)c1 (stereo not drawn) [Example 547, 5-Chloro-N-(3,4-dihydro-2H-chromen-3-ylmethyl)-6-(3-fluorophenyl)nicotinamide] | 98.4 nM
24 | COc1cc(F)cc(-c2ccc(C(=O)NCCC3CCCCO3)cn2)c1 (stereo not drawn) [Example 560, 6-(3-Fluoro-5-methoxyphenyl)-N-[2-(tetrahydro-2H-pyran-2-yl)ethyl]nicotinamide] | 129 nM
25 | O=C(NCc1noc(C(=O)N2CC[C@@H](O)C2)n1)c1ccc(-c2cccc(F)c2)nc1 [Example 211, 6-(3-Fluorophenyl)-N-[(5-{[(3R)-3-hydroxypyrrolidin-1-yl]carbonyl}-1,2,4-oxadiazol-3-yl)methyl]nicotinamide] | 362 nM
26 | CC(C)c1cc(CNC(=O)c2ccc(-c3cccc(F)c3)nc2)on1 [Example 127, 6-(3-Fluorophenyl)-N-[(3-isopropylisoxazol-5-yl)methyl]nicotinamide] | 30.3 nM
27 | Cc1ccccc1CNC(=O)c1ccc(-c2cc(F)cc(F)c2)nc1 [Example 541, 6-(3,5-Difluorophenyl)-N-(2-methylbenzyl)nicotinamide] | 16.9 nM
28 | COC(=O)[C@H](C)NC(=O)c1ccc(-c2ccccc2)nc1 [Example 349, Methyl N-[(6-phenylpyridin-3-yl)carbonyl]alaninate] | 47 nM
29 | CNS(=O)(=O)c1ccc(CNC(=O)c2cnc(-c3cccc(F)c3)c(Cl)c2)cc1 [Example 554, 5-Chloro-6-(3-fluorophenyl)-N-{4-[(methylamino)sulfonyl]benzyl}nicotinamide] | 223 nM
30 | Cc1ccc2c(c1)C(NC(=O)c1ccc(-c3cc(F)cc(F)c3)nc1)CC(C)(C)O2 (stereo not drawn) [Example 536, 6-(3,5-Difluorophenyl)-N-(2,2,6-trimethyl-3,4-dihydro-2H-chromen-4-yl)nicotinamide] | 53.5 nM
31 | COC(C)(C)CNC(=O)c1ccc(-c2cccc(C)c2)nc1 [Example 232, N-(2-Methoxy-2-methylpropyl)-6-(3-methylphenyl)nicotinamide] | 137 nM
32 | O=C(NCCc1nc(CN2CCOCC2)no1)c1ccc(-c2cccc(F)c2)nc1 [Example 35, 6-(3-Fluorophenyl)-N-{2-[3-(morpholin-4-ylmethyl)-1,2,4-oxadiazol-5-yl]ethyl}nicotinamide] | 50.8 nM
33 | CCCCNC(=O)c1ccc(-c2ccccc2)nc1 [Example 368, N-Butyl-6-phenylnicotinamide] | 16.6 nM
34 | Cc1ccccc1CNC(=O)c1ccc(-c2ccccc2)nc1 [Example 151, N-(2-Methylbenzyl)-6-phenylnicotinamide] | 1.88 nM
35 | O=C(NCCN1CCN(Cc2ccccc2)CC1)c1ccc(-c2ccccc2)nc1 [Example 382, N-[2-(4-Benzylpiperazin-1-yl)ethyl]-6-phenylnicotinamide] | 9.1 nM
36 | Cc1cccc(-c2ccc(C(=O)NC(=O)[C@@H](N)C(C)C)cn2)c1 [Example 243, 6-(3-Methylphenyl)-N-L-valylnicotinamide] | 124 nM
37 | CN(C)CCNC(=O)c1ccc(-c2ccc(F)cc2)nc1 [Example 467, N-[2-(Dimethylamino)ethyl]-6-(4-fluorophenyl)nicotinamide] | ≥ 1000 nM
38 | COC(=O)CC[C@@H](NC(=O)c1ccc(-c2cccc(F)c2)nc1)C(=O)OC [Example 66, Dimethyl N-{[6-(3-fluorophenyl)pyridin-3-yl]carbonyl}-D-glutamate] | 95.2 nM
39 | O=C(Nc1ccncc1)c1ccc(-c2ccc(F)cc2)nc1 [Example 459, 6-(4-Fluorophenyl)-N-pyridin-4-ylnicotinamide] | 222 nM
40 | CN1CCC(CCNC(=O)c2ccc(-c3ccccc3)nc2)CC1 [Example 388, N-[2-(1-Methylpiperidin-4-yl)ethyl]-6-phenylnicotinamide] | 15.7 nM
41 | O=C(Nc1ccccc1)c1ccc(-c2ccc(F)cc2)nc1 [Example 256, 6-(4-Fluorophenyl)-N-phenylnicotinamide] | 145 nM
42 | Cc1cc(=O)[nH]c(N2CCC(CNC(=O)c3ccc(-c4cccc(F)c4)nc3)CC2)n1 [Example 109, 6-(3-Fluorophenyl)-N-{[1-(4-methyl-6-oxo-1,6-dihdyropyrimidin-2-yl)piperidin-4-yl]methyl}nicotinamide] | 34.5 nM
